Values of other authors as cited in patent publication US20080153738A1, “COMPOSITIONS AND METHODS FOR TREATMENT OF HYPERPLASIA” (priority 1997, published 2008).

Test system: in-stent restenosis in porcine coronary arteries

Structure (SMILES): CC(=O)O[C@H]1C(=O)[C@@]2(C)[C@H]([C@H](OC(=O)c3ccccc3)[C@]3(O)C[C@H](OC(=O)[C@H](O)[C@@H](NC(=O)c4ccccc4)c4ccccc4)C(C)=C1C3(C)C)[C@]1(OC(C)=O)CO[C@@H]1C[C@@H]2O [paclitaxel, Paclitaxel]
- neointimal area (90 μg paclitaxel stents): significant reduction in neointimal area
- Lumen area (15 and 90 μg paclitaxel stents, directly applied without polymer): Lumen area was increased
- local cytotoxic effects (stents coated with 90 μg of paclitaxel): significant local cytotoxic effects were observed
- diameter stenosis and neointimal area (stents coated with biodegradable polymer, slow-release paclitaxel 175-200 μg/stent, 4 weeks): reduction in diameter stenosis and neointimal area
